Target: T1, EHMT2 (Homo sapiens, UniProt Q96KQ7)
T1 construct: host or cells: MDA-MB-231
T1 sequence (Q96KQ7 1-1210): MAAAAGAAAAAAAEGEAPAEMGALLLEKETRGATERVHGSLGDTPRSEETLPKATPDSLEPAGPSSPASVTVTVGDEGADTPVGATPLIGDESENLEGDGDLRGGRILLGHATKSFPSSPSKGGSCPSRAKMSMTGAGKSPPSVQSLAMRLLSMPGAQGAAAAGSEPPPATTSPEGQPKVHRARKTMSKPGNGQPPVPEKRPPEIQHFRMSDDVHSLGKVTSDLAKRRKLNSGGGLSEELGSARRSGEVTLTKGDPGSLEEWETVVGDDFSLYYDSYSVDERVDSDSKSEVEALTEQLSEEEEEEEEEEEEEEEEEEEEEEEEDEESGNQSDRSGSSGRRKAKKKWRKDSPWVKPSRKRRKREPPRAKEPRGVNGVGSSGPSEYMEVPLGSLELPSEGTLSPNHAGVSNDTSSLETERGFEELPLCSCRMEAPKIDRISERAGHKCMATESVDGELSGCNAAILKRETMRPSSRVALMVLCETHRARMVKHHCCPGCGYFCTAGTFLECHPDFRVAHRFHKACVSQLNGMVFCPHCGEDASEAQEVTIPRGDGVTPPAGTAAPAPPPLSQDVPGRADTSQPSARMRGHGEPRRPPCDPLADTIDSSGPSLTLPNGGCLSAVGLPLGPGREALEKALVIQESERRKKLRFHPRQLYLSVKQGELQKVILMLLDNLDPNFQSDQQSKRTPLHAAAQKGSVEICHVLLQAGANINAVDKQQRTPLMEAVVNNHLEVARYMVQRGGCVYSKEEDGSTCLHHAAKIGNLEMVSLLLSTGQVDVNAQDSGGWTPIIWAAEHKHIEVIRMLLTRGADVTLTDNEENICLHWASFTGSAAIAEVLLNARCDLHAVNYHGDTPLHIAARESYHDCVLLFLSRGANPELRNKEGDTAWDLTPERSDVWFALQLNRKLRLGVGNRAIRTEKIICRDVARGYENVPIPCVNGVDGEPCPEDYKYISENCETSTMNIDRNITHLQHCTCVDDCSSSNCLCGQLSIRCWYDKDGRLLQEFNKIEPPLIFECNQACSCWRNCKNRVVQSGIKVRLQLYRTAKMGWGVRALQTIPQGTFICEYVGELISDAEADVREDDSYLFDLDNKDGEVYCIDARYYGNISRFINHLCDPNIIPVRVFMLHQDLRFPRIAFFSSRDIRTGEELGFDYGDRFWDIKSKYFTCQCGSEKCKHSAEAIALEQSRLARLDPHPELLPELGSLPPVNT
Test: MDA-MB-231 H3K9me2 in-cell Western assay (EHMT2 ICW)
Type: cell-based
Conditions: Table VI; read-out: EHMT2 ICW IC50
In short: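 IC50 values came from a variable-slope four-parameter fit on triplicate wells, using % inhibition from the 800/700 nm infrared signal ratio (anti-H3K9me2 versus DRAQ5 DNA stain). Before fixation and immunostaining, MDA-MB-231 cells, 3,000 per well, were exposed to compound for 48 h at 37 °C.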

CNc1cc(C)nc(Nc2ccc(OC)c(OC[C@H](O)CN3CC(F)C3)c2)n1 [Compound 986]
IC50: 1000 to 10000 nM

CNc1cc(C)nc(Nc2ccc(OC)c(CNCCN(C)C)c2)n1 [Compound 990]
IC50: 100 to 1000 nM

CNc1ccnc(Nc2ccc(OC)c(OCC(C)(O)CN3CCC3)c2)n1 (stereo not shown) [Compound 1005]
IC50: 1000 to 10000 nM

CCN1CCC(O)(COc2cc(Nc3nccc(NC)n3)ccc2OC)C1 (stereo not shown) [Compound 1006]
IC50: 100 to 1000 nM

CCN1CCC(O)(COc2cc(Nc3nccc(NC)n3)ccc2OC)C1 (stereo not shown) [Compound 1007]
IC50: > 10000 nM

CNc1ccnc(Nc2ccc(OC)c(OCC(C)CN3CCC3)c2)n1 (stereo not shown) [Compound 1008]
IC50: 100 to 1000 nM

CNCC(C)COc1cc(Nc2nccc(NC)n2)ccc1OC (stereo not shown) [Compound 1009]
IC50: 1000 to 10000 nM

CNCCC(C)Oc1cc(Nc2nccc(NC)n2)ccc1OC (stereo not shown) [Compound 1011]
IC50: 1000 to 10000 nM

CNc1ccnc(Nc2ccc(OC)c(OCCC(C)N3CCC3)c2)n1 (stereo not shown) [Compound 1014]
IC50: 1000 to 10000 nM

CNc1ccnc(Nc2ccc(OC)c(OCCC(C)NC)c2)n1 (stereo not shown) [Compound 1016]
IC50: 1000 to 10000 nM

Reference: patent US20210198277A1, “AMINE-SUBSTITUTED ARYL OR HETEROARYL COMPOUNDS” (Epizyme, Inc., priority 2016, published 2021)
